# Measured values reported in ChEMBL document CHEMBL1157662, “Antimalarial and antileishmanial activities of histone deacetylase inhibitors with triazole-linked cap group” (Bioorg Med Chem, 2010).
# Active and inactive are the calls of the source. The calls are words filed in the database; no cut-off is given here.
# Key:
# [1] = Selectivity index, ratio of IC50 for african green monkey (Cercopithecus aethiops) Vero cells to IC50 for chloroquine-sensitive Plasmodium falciparum D6
# Leishmania donovani [2] = assay: Antileishmanial activity against Leishmania donovani promastigotes after 72 hrs by alamar blue assay; assay type: functional, organism-based
# Plasmodium falciparum [3] = assay: microbe, parasite or virus in culture; details: D6, Vero, 72 h
# Description: Antimalarial activity against chloroquine-sensitive Plasmodium falciparum D6 infected in African green monkey (Cercopithecus aethiops) Vero cells assessed as parasite LDH activity after 72 hrs by Malstat reagent method
# Plasmodium falciparum [4] = assay: microbe, parasite or virus in culture; assay type: functional, organism-based, W2, Vero; details: Plasmodium falciparum, W2, Vero, 72 h; read-out: IC50
# Description: Antimalarial activity against chloroquine-resistant Plasmodium falciparum W2 infected in African green monkey (Cercopithecus aethiops) Vero cells assessed as parasite LDH activity after 72 hrs by Malstat reagent method
# Histone deacetylase = assay: Inhibition of HDAC in human HeLa cell nuclear extracts after 15 mins by fluorescence assay; assay type: cell-based
# [5] = Selectivity index, ratio of IC50 for african green monkey (Cercopithecus aethiops) Vero cells to IC50 for chloroquine-resistant Plasmodium falciparum W2
# Vero = assay: Cytotoxicity against african green monkey Vero cells after 1 to 2 days by neutral red assay; assay type: ADME, cell-based, Chlorocebus sabaeus
# Leishmania donovani [6] = test system: Leishmania donovani
# Leishmania donovani [7] = assay: Ratio of suberoylanilide hydroxamic acid IC50 to compound IC50 for Leishmania donovani promastigotes; assay type: functional
# Leishmania donovani [8] = assay: Ratio of suberoylanilide hydroxamic acid IC50 to compound IC50 for Leishmania donovani promastigotes
# Plasmodium falciparum [9] = assay: Ratio of suberoylanilide hydroxamic acid IC50 to compound IC50 for chloroquine-resistant Plasmodium falciparum W2 infected in […]; assay type: functional
# Plasmodium falciparum [10] = assay: Ratio of suberoylanilide hydroxamic acid IC50 to compound IC50 for chloroquine-sensitive Plasmodium falciparum D6 infected in […]; assay type: functional
# [11] = Leishmania donovani, 72 h, read-out: IC50
# [12] = Chlorocebus sabaeus, Vero, read-out: IC50
Compound,selectivity ratio [1],"IC90 (Leishmania donovani [2]; Leishmania donovani, 72 h) [µg/mL]",IC50 (Leishmania donovani [2]; [11]) [µg/mL],IC50 (Plasmodium falciparum [3]) [µg/mL],IC50 (Plasmodium falciparum [4]) [µg/mL],IC50 (Histone deacetylase) [nM],selectivity ratio [5],IC50 (Vero; vero),IC50 (Vero; [12]) [µg/mL],IC50 (Leishmania donovani [2]),IC90 (Leishmania donovani [6]),Ratio (Leishmania donovani [7]),IC50 ratio (Leishmania donovani [8]),Ratio IC50 (Plasmodium falciparum [9]),Ratio IC50 (Plasmodium falciparum [10])
CN(C)c1ccc(-c2cn(CCCCCCCCC(=O)NO)nn2)cc1,> 2.6,> 40,20.8,1.8,1.65,596.6,> 2.9,Non-toxic,,,,,,,
O=C(CCCCCCCn1cc(-c2ccccc2)nn1)NO,> 7.4,> 40,17.8,0.645,0.695,363.6,> 6.8,Non-toxic,,,,,,,
O=C(CCCCCCn1cc(-c2cccnc2)nn1)NO,50.1,40,15.5,0.0755,0.081,365.8,46.7,,3.78,,,,,,
O=C(CCCCCCCCn1cc(-c2ccccc2)nn1)NO,1.9,> 40,18.5,2.65,2.75,55.4,1.2,,3.35,,,,,,
O=C(CCCCCCCn1cc(-c2cccc(-c3ccccc3)c2)nn1)NO,> 5.6,40,20.2,0.84,0.65,108.9,> 7.3,Non-toxic,,,,,,,
O=C(CCCCn1cc(-c2ccccc2)nn1)NO,> 38.1,,,0.125,0.12,,> 39.6,Non-toxic,,Not Active,inactive,,,,
O=C(CCCCCCn1cc(-c2ccccc2)nn1)NO,11.3,40,4.55,0.038,0.0245,,17.6,,0.43,,,2,2,,
O=C(CCCCCn1cc(-c2ccc3cccnc3c2)nn1)NO,> 90.7,> 40,18.5,0.0525,0.033,,> 144,Non-toxic,,,,,,5,5
CN(C)c1ccc(-c2cn(CCCCCCC(=O)NO)nn2)cc1,31.2,36,5.35,0.0245,0.032,,23.9,,0.765,,,2,2,,
O=C(CCCCCCCCn1cc(-c2cccc(-c3ccccc3)c2)nn1)NO,> 1.4,40,20,3.35,3.2,147.7,> 1.5,Non-toxic,,,,,,,
O=C(CCCCCCCn1cc(-c2cccnc2)nn1)NO,> 3.2,> 40,19.8,1.49,1.69,425.8,> 2.8,Non-toxic,,,,,,,
O=C(CCCCCCn1cc(-c2ccc(-c3ccncc3)cc2)nn1)NO,> 4.1,,,1.15,1.25,,> 3.8,Non-toxic,,Not Active,inactive,,,,
COc1ccc2cc(-c3cn(CCCCCCCC(=O)NO)nn3)ccc2c1,5.8,,,0.112,0.165,226.1,3.9,,0.65,Not Active,inactive,,,,
O=C(CCCCCn1cc(-c2cccs2)nn1)NO,> 103,> 40,11.5,0.046,0.0365,,> 130,Non-toxic,,,,2,2,,
O=C(CCCCCCn1cc(-c2ccccn2)nn1)NO,13.8,40,5.75,0.069,0.04,,23.8,,0.95,,,2,2,,
Cc1ccc(-c2cn(CCCCCC(=O)NO)nn2)cc1,29.6,> 40,21.5,0.13,0.14,,27.5,,3.85,,,,,,
Cc1ccccc1-c1cn(CCCCCCC(=O)NO)nn1,5.9,40,26,0.12,0.14,2.8,5.1,,0.71,,,,,,
O=C(CCCCCn1cc(-c2ccccc2)nn1)NO,44.9,> 40,17.5,0.088,0.13,,30.4,,3.95,,,,,,
O=C(CCCCCn1cc(-c2cccc(-c3ccccc3)c2)nn1)NO,> 127,32.5,11.2,0.0375,0.026,,> 183,Non-toxic,,,,2,2,,
O=C(CCCCCn1cc(-c2ccc(-c3ccncc3)cc2)nn1)NO,> 105,> 40,28,0.0455,0.0475,,> 100,Non-toxic,,,,,,,
O=C(CCCCCCCn1cc(-c2ccc(-c3ccncc3)cc2)nn1)NO,43.5,,,0.0885,0.128,212.9,30.2,,3.85,Not Active,inactive,,,,
CN(C)c1ccc(-c2cn(CCCCCCCC(=O)NO)nn2)cc1,3.8,> 40,24,0.175,0.185,15.9,3.6,,0.97,,,,,,
Cc1cccc(-c2cn(CCCCCC(=O)NO)nn2)c1,34,> 40,17,0.0795,0.068,,39.7,,2.7,,,,,,
O=C(CCCn1cc(-c2ccccc2)nn1)NO,> 1.7,,,2.85,3.5,,> 1.4,Non-toxic,,Not Active,inactive,,,,
COc1ccccc1-c1cn(CCCCCC(=O)NO)nn1,15.3,> 40,18.8,0.15,0.0975,,23.6,,2.3,,,,,,
